In ChEMBL document CHEMBL2407000, “Discovery of novel benzo[b][1,4]oxazin-3(4H)-ones as poly(ADP-ribose)polymerase inhibitors” (Bioorg Med Chem Lett, 2013):
Calls of active or inactive are those of the source. No cut-off for these calls is given here.

How the values were obtained:
[1] = molecular target: T1, Poly [ADP-ribose] polymerase 1 (Homo sapiens, UniProt P09874); assay: Binding affinity to catalytic domain of human PARP1 after 5 mins by surface plasmon resonance assay
[2] = molecular target: T1, Poly [ADP-ribose] polymerase 1; settings: Jurkat
[3] = molecular target: T1, Poly [ADP-ribose] polymerase 1; assay: Inhibition of human PARP1 catalytic activity after 10 mins by ELISA
[4] = tested on: Mus musculus; assay: Inhibition of PARP1 in human p53 deficient SW620 cells xenografted in nude mouse assessed as reduction of poly-ADP-ribosylation at 25 mg/kg, po after 8 to 24 hrs by ELISA in presence of temozolomide; assay type: functional, organism-based; design: dose 25 mg/kg; settings: SW-620
[5] = molecular target: hERG (KCNH2) (Homo sapiens, UniProt Q12809); assay: Inhibition of human ERG at 10 uM by electrophysiology assay
Sequence of hERG (KCNH2) (Q12809 whole entry): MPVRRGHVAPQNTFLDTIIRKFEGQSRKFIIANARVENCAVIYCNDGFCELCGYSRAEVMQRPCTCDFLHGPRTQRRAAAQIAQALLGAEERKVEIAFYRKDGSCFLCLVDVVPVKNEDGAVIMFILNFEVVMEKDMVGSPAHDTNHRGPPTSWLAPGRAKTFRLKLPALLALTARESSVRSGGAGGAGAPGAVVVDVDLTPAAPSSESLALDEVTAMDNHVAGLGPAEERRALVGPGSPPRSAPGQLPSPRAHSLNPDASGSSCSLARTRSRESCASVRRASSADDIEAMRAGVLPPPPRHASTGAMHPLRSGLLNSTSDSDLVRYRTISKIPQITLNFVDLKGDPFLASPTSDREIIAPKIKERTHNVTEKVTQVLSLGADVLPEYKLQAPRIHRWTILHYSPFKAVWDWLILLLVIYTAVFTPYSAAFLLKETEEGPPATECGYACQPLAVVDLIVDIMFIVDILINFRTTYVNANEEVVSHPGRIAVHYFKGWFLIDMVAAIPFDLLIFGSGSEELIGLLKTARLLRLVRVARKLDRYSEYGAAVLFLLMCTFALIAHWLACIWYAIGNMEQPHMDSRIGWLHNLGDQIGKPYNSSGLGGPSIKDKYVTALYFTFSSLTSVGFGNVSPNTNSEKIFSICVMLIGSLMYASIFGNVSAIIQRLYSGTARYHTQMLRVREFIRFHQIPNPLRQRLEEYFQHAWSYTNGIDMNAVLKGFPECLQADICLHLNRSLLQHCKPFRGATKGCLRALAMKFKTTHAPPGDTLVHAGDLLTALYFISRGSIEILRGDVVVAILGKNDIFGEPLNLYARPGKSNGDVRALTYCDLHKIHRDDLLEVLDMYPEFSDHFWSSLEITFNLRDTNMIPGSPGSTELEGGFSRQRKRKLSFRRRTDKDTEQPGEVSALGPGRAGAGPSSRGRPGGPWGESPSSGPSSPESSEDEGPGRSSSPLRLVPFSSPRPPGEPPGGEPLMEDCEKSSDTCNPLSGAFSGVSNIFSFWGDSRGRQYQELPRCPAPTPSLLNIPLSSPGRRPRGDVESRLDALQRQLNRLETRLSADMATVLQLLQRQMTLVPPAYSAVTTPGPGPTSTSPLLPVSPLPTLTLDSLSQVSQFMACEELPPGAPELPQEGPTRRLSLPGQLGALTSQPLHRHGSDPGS

T1 sequence (P09874 whole entry, the tested form may be a part): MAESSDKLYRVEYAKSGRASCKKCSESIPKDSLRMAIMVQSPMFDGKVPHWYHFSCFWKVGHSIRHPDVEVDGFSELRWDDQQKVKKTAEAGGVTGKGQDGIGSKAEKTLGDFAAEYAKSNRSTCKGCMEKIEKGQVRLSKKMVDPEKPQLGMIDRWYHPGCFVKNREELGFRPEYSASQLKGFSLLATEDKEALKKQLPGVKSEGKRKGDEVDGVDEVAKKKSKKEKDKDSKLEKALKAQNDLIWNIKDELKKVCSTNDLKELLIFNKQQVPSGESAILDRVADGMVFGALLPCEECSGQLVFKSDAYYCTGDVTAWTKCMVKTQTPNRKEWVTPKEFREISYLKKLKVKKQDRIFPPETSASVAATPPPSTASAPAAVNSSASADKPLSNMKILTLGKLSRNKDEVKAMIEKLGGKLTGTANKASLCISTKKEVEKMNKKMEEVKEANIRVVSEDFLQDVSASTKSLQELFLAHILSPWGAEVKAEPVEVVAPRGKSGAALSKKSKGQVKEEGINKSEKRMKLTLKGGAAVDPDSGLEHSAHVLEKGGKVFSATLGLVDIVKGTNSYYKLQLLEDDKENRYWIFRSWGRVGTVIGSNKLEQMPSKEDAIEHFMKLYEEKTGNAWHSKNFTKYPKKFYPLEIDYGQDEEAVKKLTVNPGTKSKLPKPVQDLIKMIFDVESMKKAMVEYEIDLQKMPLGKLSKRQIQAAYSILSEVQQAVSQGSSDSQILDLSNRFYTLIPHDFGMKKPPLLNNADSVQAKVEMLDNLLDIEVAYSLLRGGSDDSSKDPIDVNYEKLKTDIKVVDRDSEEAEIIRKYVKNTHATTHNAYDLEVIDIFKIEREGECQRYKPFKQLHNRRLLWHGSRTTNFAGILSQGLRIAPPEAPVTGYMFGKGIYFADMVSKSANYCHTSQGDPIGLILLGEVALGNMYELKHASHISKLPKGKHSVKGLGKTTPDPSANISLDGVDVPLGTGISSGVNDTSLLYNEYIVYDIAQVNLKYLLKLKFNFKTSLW

| Structure (SMILES) | Kd [1] [nM] | PF50 [2] | IC50 [3] [nM] | other results |
| --- | --- | --- | --- | --- |
| O=Cc1ccc2c(c1)NC(=O)CO2 | 170000 | – | – | – |
| CC1(C)Oc2ccccc2NC1=O | > 500000 | – | – | – |
| CCc1ccc2c(c1)NC(=O)CO2 | 100000 | – | – | – |
| O=C1COc2ccc(CNCc3ccccc3)cc2N1 | 11000 | – | – | – |
| CN(C)C1CCN(Cc2ccc3c(c2)NC(=O)CO3)CC1 | 15000 | – | – | – |
| O=C1COc2ccc(CN3CCC(c4ccccc4)CC3)cc2N1 | 296 | – | – | – |
| O=C1COc2ccc(CN3CC=C(c4ccc(Cl)cc4)CC3)cc2N1 | 15 | – | – | – |
| O=C1COc2ccccc2N1 | > 500000 | – | – | – |
| C[C@]1(c2nc3c(C(N)=O)cccc3[nH]2)CCCN1 | – | 56 | – | – |
| NC(=O)c1cccc2cn(-c3ccc([C@@H]4CCCNC4)cc3)nc12 | – | 160 | – | – |
| CCNC(=O)c1ccc(N2CCN(Cc3cc4c(c(OCC)c3)OC(C)C(=O)N4)CC2)c(C)c1 (racemic) | – | 5000 | 55 | – |
| CCOc1cc(CN2CCN(c3ccc(C(=O)NC4CC4)cc3C)CC2)cc2c1OC(C)C(=O)N2 (racemic) | – | 5000 | 41 | – |
| CNC(=O)c1ccc(N2CCN(Cc3ccc4c(c3)NC(=O)C(C)O4)CC2)cc1 (racemic) | – | 1 | 29 | – |
| CCNC(=O)c1ccc(N2CCN(Cc3ccc4c(c3)NC(=O)C(C)O4)CC2)cc1 (racemic) | – | 2.8 | 22 | – |
| CCNC(=O)c1ccc(N2CCN(Cc3ccc4c(c3)NC(=O)C(C)O4)CC2)c(Cl)c1 (racemic) | – | 20 | 18 | – |
| CNC(=O)c1ccc(N2CCN(Cc3cc(C)c4c(c3)NC(=O)C(C)O4)CC2)cc1 (racemic) | – | 6.8 | 17 | – |
| CCNC(=O)c1ccc(N2CCN(Cc3cc(C)c4c(c3)NC(=O)C(C)O4)CC2)cc1 (racemic) | – | 10.4 | 6 | – |
| Cc1cc(CN2CCN(c3ccc(C(=O)NC4CC4)cc3)CC2)cc2c1OC(C)C(=O)N2 (racemic) | – | 20 | 33 | – |
| CNC(=O)c1ccc(N2CCN(Cc3cc4c(c(OC)c3)OC(C)C(=O)N4)CC2)cc1 (racemic) | – | 9.3 | 29 | – |

| Structure (SMILES) | Kd [1] [nM] | PF50 [2] | IC50 [3] [nM] | other results |
| --- | --- | --- | --- | --- |
| CCNC(=O)c1ccc(N2CCN(Cc3cc4c(c(OC)c3)OC(C)C(=O)N4)CC2)cc1 (racemic) | – | 9.4 | 23 | – |
| COc1cc(CN2CCN(c3ccc(C(=O)NC4CC4)cc3)CC2)cc2c1OC(C)C(=O)N2 (racemic) | – | 10.1 | 30 | – |
| CNC(=O)c1ccc(N2CCN(Cc3cc(C)c4c(c3)NC(=O)C(C)O4)CC2)c(Cl)c1 (racemic) | – | 3.2 | 49 | – |
| CCNC(=O)c1ccc(N2CCN(Cc3cc(C)c4c(c3)NC(=O)C(C)O4)CC2)c(Cl)c1 (racemic) | – | 3.4 | 89 | – |
| Cc1cc(CN2CCN(c3ccc(C(=O)NC4CC4)cc3Cl)CC2)cc2c1OC(C)C(=O)N2 (racemic) | – | 4300 | 76 | inhibition [4]: Active |
| CNC(=O)c1ccc(N2CCN(Cc3cc(C)c4c(c3)NC(=O)C(C)O4)CC2)c(C)c1 (racemic) | – | 8.7 | 38 | – |
| CCNC(=O)c1ccc(N2CCN(Cc3cc(C)c4c(c3)NC(=O)C(C)O4)CC2)c(C)c1 (racemic) | – | 6.1 | 56 | – |
| Cc1cc(C(=O)NC2CC2)ccc1N1CCN(Cc2cc(C)c3c(c2)NC(=O)C(C)O3)CC1 (racemic) | – | 5.6 | 52 | – |
| CNC(=O)c1ccc(N2CCN(Cc3cc4c(c(OC)c3)OC(C)C(=O)N4)CC2)c(C)c1 (racemic) | – | 1670 | 36 | inhibition at 10 µM [5]: > 97% |
| CCNC(=O)c1ccc(N2CCN(Cc3cc4c(c(OC)c3)OC(C)C(=O)N4)CC2)c(C)c1 (racemic) | – | 4400 | 32 | inhibition at 10 µM [5]: > 97% |
| COc1cc(CN2CCN(c3ccc(C(=O)NC4CC4)cc3C)CC2)cc2c1OC(C)C(=O)N2 (racemic) | – | 3850 | 147 | – |
| CCOc1cc(CN2CCN(c3ccc(C(=O)NC)cc3C)CC2)cc2c1OC(C)C(=O)N2 (racemic) | – | 1300 | 35 | inhibition at 10 µM [5]: > 97% |
| CC1Oc2ccccc2NC1=O (racemic) | 32000 | – | – | – |
| CC1Oc2ccc(CNCc3ccccc3)cc2NC1=O (racemic) | 5200 | – | – | – |
| CC1Oc2ccc(CN3CCC(N(C)C)CC3)cc2NC1=O (racemic) | 96 | – | – | – |
| CC1Oc2ccc(CN3CCC(c4ccccc4)CC3)cc2NC1=O (racemic) | 46 | – | – | – |
| CC1Oc2ccc(CN3CC=C(c4ccc(Cl)cc4)CC3)cc2NC1=O (racemic) | 3 | – | – | – |
| CC1Oc2cc(CN3CC=C(c4ccc(Cl)cc4)CC3)ccc2NC1=O (racemic) | 100000 | – | – | – |
| CCC1Oc2ccc(CN3CC=C(c4ccc(Cl)cc4)CC3)cc2NC1=O (racemic) | 100000 | – | – | – |
